These are literature values, as cited in patent publication US20170334959A1 (priority 2015, published 2017).

In series [1] the test system is acute and inflammatory pain. To be noted: in vivo; cited from earlier work.
The test system of another series is isolated nerves. To be noted: cited from earlier work.

Consider “YCQKWMWTCDSERKCCEGMVCRLWCKKKLW-COOH [wild-type Protoxin-II]”, for which the “efficacy in rodent models of acute and inflammatory pain” value in series [1] was “non-efficacious”. Also, the “inhibition of action potential firing in isolated nerves” value in the series with isolated nerves is “inability”.
